Experiments:
[1] = system: HPV-11; assay: HPV transient replication assay (E1/E2 expression vectors plus ori plasmid, qPCR of replicated DNA); type: cell-based, human papillomavirus; settings: for SI90 (CC50/EC90): selectivity index
Excerpt: (§1) Specifically, in these tests, vectors for expression of an HPV genotype-matched set of viral El and E2 proteins (derived from virus strain HPV-11) along with an HPV ori-containing plasmid were cotransfected into HEK293 cells. […] Low molecular weight DNA was harvested 2 days post-transfection and digested with Dpnl and exonuclease Ill to remove unreplicated transfected plasmid DNA. The replicated DNA was then subjected to real time qPCR (quantitative polymerase chain reaction) analyses in triplicate. Two controls were performed. One was to omit the El expression vector to provide a background amount of undigested and unreplicated DNA. The other, positive control was treatment with the known inhibitor cidofovir, as mentioned above. A toxicity assay based upon cell viability at the time of harvest on day 2 was performed alongside each transient replication assay in 293 cells. The test compounds were added 4 hours post transfection for a total exposure of 44 hours. More than 1×10^5 cells were scored in a BioRad Automatic Cell Counter, with a determination of the total numbers, the numbers of trypan blue stained (dead) cells, and the % of dead cells.

[2] = toxicity assay based upon cell viability (trypan blue) alongside the replication assay; settings: human
Excerpt: as §1

CCN(CC)Cc1cc(Nc2ccnc3cc(Cl)ccc23)ccc1O [Amodiaquine, amodiaquine]
SI90 (CC50/EC90) [1]: >2
CC50 at 44 h [2]: > 100 µM

Nc1ccn(C[C@@H](CO)OCP(=O)(O)O)c(=O)n1 [Cidofovir, cidofovir]
EC90 ([1]; Human papillomavirus, HPV-11 E1/E2 + ori plasmid in HEK293 cells, compounds tested at 1, 10, 100 μM, 44 hours exposure, read-out: EC90 (concentration that reduces viral replication by 90%)): > 200 µM
SI90 (CC50/EC90) [1]: 1
CC50 at 44 h [2]: > 200 µM
